Assay results published in paper PMC6979384, “Characterization of the plant homeodomain (PHD) reader family for their histone tail interactions” (Epigenetics & Chromatin, 2020).

Tests used:
Experiment in all cases: Histone peptide microarray
Type in all cases: binding, human
KDM5A (1) = conditions: KDM5A (1); sheet "Array Heatmap"; each array performed twice, total n = 4
In short: (§1)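 Each reader, produced as a GST fusion and purified, was tested at 0.5 μM on synthetic histone peptides (293 in total) carrying single or combinatorial marks. Intensities averaged over four replicates.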

KDM5B (3) = conditions: KDM5B (3); sheet "Array Heatmap"; each array performed twice, total n = 4
In short: as §1

KDM5B (1) = conditions: KDM5B (1); sheet "Array Heatmap"; each array performed twice, total n = 4
In short: as §1

CHD5 (PCC) = conditions: CHD5 (PCC); sheet "Array Heatmap"; each array performed twice, total n = 4
In short: as §1

ING2 = conditions: ING2; sheet "Array Heatmap"; each array performed twice, total n = 4
In short: as §1

PHF2 = conditions: PHF2; sheet "Array Heatmap"; each array performed twice, total n = 4
In short: as §1

PHF23 = conditions: PHF23; sheet "Array Heatmap"; each array performed twice, total n = 4
In short: as §1

PHRF1 (RP) = conditions: PHRF1 (RP); sheet "Array Heatmap"; each array performed twice, total n = 4
In short: as §1

MLL5 = conditions: MLL5; sheet "Array Heatmap"; each array performed twice, total n = 4
In short: as §1

CHD4 (PPCC) = conditions: CHD4 (PPCC); sheet "Array Heatmap"; each array performed twice, total n = 4
In short: as §1

PHF13 = conditions: PHF13; sheet "Array Heatmap"; each array performed twice, total n = 4
In short: as §1

ING5 = conditions: ING5; sheet "Array Heatmap"; each array performed twice, total n = 4
In short: as §1

SP140L = conditions: SP140L; sheet "Array Heatmap"; each array performed twice, total n = 4
In short: as §1

KDM5A (3) = conditions: KDM5A (3); sheet "Array Heatmap"; each array performed twice, total n = 4
In short: as §1

BAZ2B = conditions: BAZ2B; sheet "Array Heatmap"; each array performed twice, total n = 4
In short: as §1

CHD5 (PPCC) = conditions: CHD5 (PPCC); sheet "Array Heatmap"; each array performed twice, total n = 4
In short: as §1

AIRE (PP) = conditions: AIRE (PP); sheet "Array Heatmap"; each array performed twice, total n = 4
In short: as §1

TAF3 = conditions: TAF3; sheet "Array Heatmap"; each array performed twice, total n = 4
In short: as §1

KDM7A = conditions: KDM7A; sheet "Array Heatmap"; each array performed twice, total n = 4
In short: as §1

DPF2 (PPC2W2) = conditions: DPF2 (PPC2W2); sheet "Array Heatmap"; each array performed twice, total n = 4
In short: as §1

ING3 = conditions: ING3; sheet "Array Heatmap"; each array performed twice, total n = 4
In short: as §1

RAG2 = conditions: RAG2; sheet "Array Heatmap"; each array performed twice, total n = 4
In short: as §1

PHF8 = conditions: PHF8; sheet "Array Heatmap"; each array performed twice, total n = 4
In short: as §1

DIDO1 = conditions: DIDO1; sheet "Array Heatmap"; each array performed twice, total n = 4
In short: as §1

MORC3 (CW) = conditions: MORC3 (CW); sheet "Array Heatmap"; each array performed twice, total n = 4
In short: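 Steps: express and purify GST-tagged PHD reader; incubate 0.5 μM protein on a peptide microarray (293 histone peptides, single or combined PTMs) following an optimized protocol; average signal across 4 replicates.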

TRIM66 (PB) = conditions: TRIM66 (PB); sheet "Array Heatmap"; each array performed twice, total n = 4
In short: as §1

BPTF (PB) = conditions: BPTF (PB); sheet "Array Heatmap"; each array performed twice, total n = 4
In short: as §1

ING1 = conditions: ING1; sheet "Array Heatmap"; each array performed twice, total n = 4
In short: as §1

ING4 = conditions: ING4; sheet "Array Heatmap"; each array performed twice, total n = 4
In short: as §1

PHF21A = conditions: PHF21A; sheet "Array Heatmap"; each array performed twice, total n = 4
In short: as §1

KDM4C (TTP) = conditions: KDM4C (TTP); sheet "Array Heatmap"; each array performed twice, total n = 4
In short: as §1

Substance: H3K14ac (1-32): H3 1-32
- Array Heatmap value (peptide array signal) (KDM5A (1)): 0.5739
- Array Heatmap value (peptide array signal) (KDM5B (3)): 0.5322
- Array Heatmap value (peptide array signal) (KDM5B (1)): 0.7332
- Array Heatmap value (peptide array signal) (CHD5 (PCC)): 0.9008
- Array Heatmap value (peptide array signal) (ING2): 0.6065
- Array Heatmap value (peptide array signal) (PHF2): 0.4742
- Array Heatmap value (peptide array signal) (PHF23): 0.5387
- Array Heatmap value (peptide array signal) (PHRF1 (RP)): 0.5867
- Array Heatmap value (peptide array signal) (MLL5): 0.5315
- Array Heatmap value (peptide array signal) (CHD4 (PPCC)): 0.5914
- Array Heatmap value (peptide array signal) (PHF13): 0.6445
- Array Heatmap value (peptide array signal) (ING5): 0.3965
- Array Heatmap value (peptide array signal) (SP140L): 0.4015
- Array Heatmap value (peptide array signal) (KDM5A (3)): 0.5824
- Array Heatmap value (peptide array signal) (BAZ2B): 0.5612
- Array Heatmap value (peptide array signal) (CHD5 (PPCC)): 0.6129
- Array Heatmap value (peptide array signal) (AIRE (PP)): 0.6762
- Array Heatmap value (peptide array signal) (TAF3): 0.3178
- Array Heatmap value (peptide array signal) (KDM7A): 0.4771
- Array Heatmap value (peptide array signal) (DPF2 (PPC2W2)): 0.88
- Array Heatmap value (peptide array signal) (ING3): 0.5035
- Array Heatmap value (peptide array signal) (RAG2): 0.2609
- Array Heatmap value (peptide array signal) (PHF8): 0.4423
- Array Heatmap value (peptide array signal) (DIDO1): 0.6524
- Array Heatmap value (peptide array signal) (MORC3 (CW)): 0.4902
- Array Heatmap value (peptide array signal) (TRIM66 (PB)): 0.5901
- Array Heatmap value (peptide array signal) (BPTF (PB)): 0.3702
- Array Heatmap value (peptide array signal) (ING1): 0.5563
- Array Heatmap value (peptide array signal) (ING4): 0.5113
- Array Heatmap value (peptide array signal) (PHF21A): 0.5508
- Array Heatmap value (peptide array signal) (KDM4C (TTP)): 0.5844
